According to patent US20080234203A1, “Use of Substances Having Oxytocin Antagonistic Properties” (Ferring BV, priority 2004, published 2008):

Assays:
[1] = system: pregnant rats; experiment: Blood pressure measurements in pregnant rats (tail cuff); assay type: in vivo, rat; conditions: 200 μg/d, gestational day 19 to 22 and pp1 to pp7
Protocol: The X axis represents the time of pregnancy (gestational age), and the Y axis represents the systolic blood pressure (mmHg). Barusiban (200 μg/d), atosiban (200 μg/d) and control (saline) (200 μg/d) were administered to pregnant rats from gestational day 19 to 22 and during pp1 to pp7 (pp=post partum).
Animals. Adult nulliparous pregnant rats (300-325 g body weight) were purchased from Harlan Sprague Dawley, Inc (Indianapolis, Ind.), and were received in the animal facilities on day 16 of pregnancy (with day 1 being the day of the positive sperm smear result). All animals were given free access to food and water.
Blood pressure measurement. Starting on day 19 of pregnancy systolic blood pressure was measured daily or every other day with a pneumatic tail cuff device (NARCO Biosystems, Inc, Austin, Tex.) in animals that had been warmed in a metal chamber maintained at approximately 30° C. Blood pressure values obtained from 3 consecutive measurements were averaged and recorded as the pressure for a given rat at each point. Measurements of systolic blood pressure of all animals were carried out until delivery and for seven days post partum (pp7) All animals delivered on day 22 of gestation, the expected day of delivery. Three groups of animals were studied: Group 1. […]
Statistical analysis. Mean +/− SEM values were calculated for blood pressure levels on each day of pregnancy and post partum. […]

[2] = system: isolated uterine artery, femoral artery, carotoid artery and aorta; experiment: In vitro contractility of isolated arteries from non-pregnant SHR rats; set-up: species or system spontaneous hypertensive (SHR) rats; conditions: uterine arteries compared with femoral artery
Excerpt: (§1) Nonpregnant or timed-pregnant Sprague-Dawley rats (of a 22-day pregnancy, with day 1 being the day when the sperm plug was observed) were obtained from Charles River Laboratories (Houston, Tex.). In some studies Spontaneously Hypertensive Rats (SHR) and their respective normatensive controls (WKY) were used. Rats were killed by means of carbon dioxide inhalation on day 14 (midterm pregnant) or day 22 before labor (term pregnant) or during the estrus cycle (nonpregnant). […] Contractions of uterine vascular tissues (cut into rings) were recorded and stored on computer with the DI-220 (DataQ Instruments Inc, Akron, Ohio) data acquisition system. […]
(§2) Data were analyzed by using Windaq/200 (DataQ Instruments Inc) software. Integral activity as an area under the tracing of vascular contractions for 10 minutes (expressed as milligrams per second) before (basal activity) and after the addition of each concentration of the agent was calculated and compared with basal activity (as percentage change). […] The concentration of oxytocin causing 50% of the maximal effect was determined, and the −log50 of the half maximal effect and the area under the concentration-response curves were calculated and compared. The data are expressed as mean ± SD. […]

[3] = system: isolated uterine artery, femoral artery, carotoid artery and aorta; experiment: In vitro contractility of isolated arteries from non-pregnant WKY rats; set-up: species or system Wistar (WKY) rats
Excerpt: as §1, §2

[4] = system: isolated rat uterine artery; experiment: In vitro contractility of isolated rat uterine artery from nonpregnant, midpregnant and late pregnant rats
Excerpt: The X axis-represents the oxytocin concentration {log M} and the Y axis represents % of phenylephrine-induced contraction. […] The following pD2 values were obtained, non-pregnant (9.32±0.41, n=7), midpregnant (7.46±0.13, n=6) and late pregnant (7.87±0.39, n=6). It could be speculated that the generally lower sensitivity of uterine vessels during pregnancy is related to eventually higher local oxytocin concentrations.
as §1, §2

Compound | systolic blood pressure [1] | oxytocin sensitivity (contraction dose/response) [2] | oxytocin sensitivity (contraction dose/response) ([3]; uterine arteries compared with femoral artery, carotoid artery and aorta, non-pregnant WKY rats) | oxytocin sensitivity (contraction dose/response) ([3]; uterine arteries of non-pregnant WKY rats compared with SHR rats) | pD2 (oxytocin-induced contraction, % of phenylephrine-induced contraction) ([4]; uterine artery of late pregnant rats, n=6) | pD2 (oxytocin-induced contraction, % of phenylephrine-induced contraction) ([4]; uterine artery of midpregnant rats, n=6) | pD2 (oxytocin-induced contraction, % of phenylephrine-induced contraction) ([4]; uterine artery of non-pregnant rats, n=7)
C^4,6, S^1-cyclo [Barusiban, C^4,6, S^1-cyclo [N-(3-sulfanylpropanoyl) -D-tryptophyl-L -isoleucyl-L-alloisoleucyl-L-asparaginyl-L-2-aminobutanoyl-N-methyl-L-ornithinol]] | beneficial drop in systolic blood pressure around birth |  |  |  |  |  | 
CC[C@H](C)[C@@H]1NC(=O)[C@H](Cc2ccc(O)cc2)NC(=O)[C@@H](N)CSSC[C@@H](C(=O)N2CCC[C@H]2C(=O)N[C@@H](CC(C)C)C(=O)NCC(N)=O)NC(=O)[C@H](CC(N)=O)NC(=O)[C@H](CCC(N)=O)NC1=O [oxytocin] |  | highest sensitivity | outstanding high sensitivity | higher sensitivity | 7.87±0.39 | 7.46±0.13 | 9.32±0.41
